Literature values in patent publication US5874549A, “Acid-cleavable compound” (NeoRx Corporation, priority 1993, dated 1999).

Details: relative to Cpd 1 = 1

Row | Relative Rate (hydrolysis of the amide group) | Structure (SMILES)
1 | 1 | CNC(=O)/C=C\C(=O)O [Cpd 1]
2 | 31.2 | CNC(=O)/C=C(/C)C(=O)O [Cpd 2]
3 | 32.8 | CC/C(=C/C(=O)NC)C(=O)O [Cpd 3]
4 | 44.5 | CNC(=O)/C=C(\C(=O)O)C(C)C [Cpd 4]
5 | 68.0 | CNC(=O)/C=C(\C(=O)O)C(C)(C)C [Cpd 5]
6 | 2.35 × 10^4 | CCCNC(=O)/C(C)=C(/C)C(=O)O [Cpd 6]
7 | 540 | CNC(=O)C1=C(C(=O)O)CCCC1 [Cpd 7]
8 | 4.2 × 10^-5 | CNC(=O)C1=C(C(=O)O)CCC1 [Cpd 8]
9 | 4.2 × 10^-6 | CNC(=O)C1=C(C(=O)O)CC1 [Cpd 9]
10 | 0.72 | CNC(=O)c1ccccc1C(=O)O [Cpd 10]
11 | 0.7 | CC(C)NC(=O)/C=C\C(=O)O [Cpd 11]
12 | 2.6 | CC(C)(C)NC(=O)/C=C\C(=O)O [Cpd 12]
13 | 4.5 | O=C(O)/C=C\C(=O)Nc1ccccc1 [Cpd 13]
14 | 42.7 | CN(C)C(=O)/C=C\C(=O)O [Cpd 14]

Row | Structure (SMILES) | Relative Rate (hydrolysis of the amide group)
15 | C=CC(=O)NC [N-methyl acrylamide] | ~1.4 × 10^-7
